In brackets after ≈: the same amount, converted by molar mass. Activity calls are given as the source filed them. No cut-off for these calls is given here.
Assays:
[1] = target: T1, Nuclear factor erythroid 2-related factor 2 (Homo sapiens) (UniProt Q16236); experiment: Activation of Nrf2 in human HepG2-ARE-C8 cells assessed as upregulation of ARE level at 40 uM after 12 hrs by luciferase reporter gene assay relative to control; format: cell-based
T1 sequence (whole entry): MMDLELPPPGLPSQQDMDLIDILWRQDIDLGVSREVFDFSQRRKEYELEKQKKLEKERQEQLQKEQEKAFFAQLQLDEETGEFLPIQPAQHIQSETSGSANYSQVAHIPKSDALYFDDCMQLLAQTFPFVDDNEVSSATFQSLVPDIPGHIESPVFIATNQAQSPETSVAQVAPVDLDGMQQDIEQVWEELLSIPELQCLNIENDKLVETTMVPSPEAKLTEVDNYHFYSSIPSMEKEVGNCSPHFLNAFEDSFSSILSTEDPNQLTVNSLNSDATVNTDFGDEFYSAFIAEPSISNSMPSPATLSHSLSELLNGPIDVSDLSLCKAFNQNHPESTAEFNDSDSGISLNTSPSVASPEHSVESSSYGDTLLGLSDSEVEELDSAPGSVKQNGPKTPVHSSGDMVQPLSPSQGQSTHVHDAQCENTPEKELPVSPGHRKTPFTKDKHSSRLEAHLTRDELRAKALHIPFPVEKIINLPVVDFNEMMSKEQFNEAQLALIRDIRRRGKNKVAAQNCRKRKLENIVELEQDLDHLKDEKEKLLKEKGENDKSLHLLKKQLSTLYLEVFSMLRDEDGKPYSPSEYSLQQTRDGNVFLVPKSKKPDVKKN

[2] = target: T1, Nuclear factor erythroid 2-related factor 2 (Homo sapiens); experiment: Activation of Nrf2 in human HepG2-ARE-C8 cells assessed as upregulation of ARE level at 80 uM after 12 hrs by luciferase reporter gene assay relative to control; format: cell-based
[3] = target: T1, Nuclear factor erythroid 2-related factor 2 (Homo sapiens); experiment: Activation of Nrf2 in human HepG2-ARE-C8 cells assessed as upregulation of ARE level at 160 uM after 12 hrs by luciferase reporter gene assay relative to control; format: cell-based
HCT-116 [4] = experiment: Cytotoxicity against human HCT116 cells assessed as reduction of cell proliferation at 80 uM after 24 hrs by MTT assay; format: cell-based; settings: hct-116, 24 h
[5] = Chemical stability assessed as compound degradation after 2 weeks; format: physicochemical; settings: 336 h
[6] = target: T1, Nuclear factor erythroid 2-related factor 2 (Homo sapiens); experiment: Activation of Nrf2 in human HepG2-ARE-C8 cells assessed as upregulation of ARE level at 20 uM after 12 hrs by luciferase reporter gene assay relative to control; format: cell-based
[7] = target: T1, Nuclear factor erythroid 2-related factor 2 (Homo sapiens); experiment: Activation of Nrf2 in human HepG2-ARE-C8 cells assessed as upregulation of ARE level at 0.2 uM after 12 hrs by luciferase reporter gene assay relative to control; format: cell-based
[8] = target: T1, Nuclear factor erythroid 2-related factor 2 (Homo sapiens); experiment: Activation of Nrf2 in human HepG2-ARE-C8 cells assessed as upregulation of ARE level at 0.02 uM after 12 hrs by luciferase reporter gene assay relative to control; format: cell-based
[9] = target: T1, Nuclear factor erythroid 2-related factor 2 (Homo sapiens); experiment: Activation of Nrf2 in human HepG2-ARE-C8 cells assessed as upregulation of ARE level at 2 uM after 12 hrs by luciferase reporter gene assay relative to control; format: cell-based
HCT-116 [10] = experiment: Cytotoxicity against human HCT116 cells assessed as effect on cell proliferation at 5 to 80 uM after 24 hrs by MTT assay; format: cell-based; settings: hct-116, 24 h
[11] = target: T1, Nuclear factor erythroid 2-related factor 2 (Homo sapiens); experiment: Activation of Nrf2 in human HCT116 cells assessed as upregulation of HO-1 expression at 10 uM measured at 4 hrs by Western blot analysis; format: cell-based; settings: HCT-116
[12] = target: T1, Nuclear factor erythroid 2-related factor 2 (Homo sapiens); experiment: Activation of Nrf2 in human HCT116 cells assessed as upregulation of NQO1 expression after 6 hrs by Western blot analysis; format: cell-based; settings: HCT-116
[13] = target: T1, Nuclear factor erythroid 2-related factor 2 (Homo sapiens); experiment: Activation of Nrf2 in human HCT116 cells after 6 hrs by Western blot analysis; format: cell-based; settings: HCT-116
[14] = target: T1, Nuclear factor erythroid 2-related factor 2 (Homo sapiens); experiment: Activation of Nrf2 in human HCT116 cells at 10 uM after 2 hrs by Western blot analysis; format: cell-based; settings: HCT-116
[15] = target: T1, Nuclear factor erythroid 2-related factor 2 (Homo sapiens); experiment: Activation of Nrf2 in human HCT116 cells at 10 uM by qRT-PCR analysis; format: cell-based; settings: HCT-116, TDE = time-dependent effect
[16] = target: T1, Nuclear factor erythroid 2-related factor 2 (Homo sapiens); experiment: Activation of Nrf2 in human HCT116 cells at 10 uM measured at 4 hrs by qRT-PCR analysis relative to control; format: cell-based; settings: HCT-116
[17] = target: T1, Nuclear factor erythroid 2-related factor 2 (Homo sapiens); experiment: Activation of Nrf2 in human HCT116 cells assessed as upregulation of GCLM gene expression at 10 uM measured at 6 hrs by qRT-PCR analysis relative to control; format: cell-based; settings: HCT-116
[18] = target: T1, Nuclear factor erythroid 2-related factor 2 (Homo sapiens); experiment: Activation of Nrf2 in human HCT116 cells assessed as upregulation of HO-1 gene expression at 10 uM measured at 6 hrs by qRT-PCR analysis relative to control; format: cell-based; settings: HCT-116
[19] = target: T1, Nuclear factor erythroid 2-related factor 2 (Homo sapiens); experiment: Activation of Nrf2 in human HCT116 cells assessed as upregulation of NQO1 gene expression at 10 uM measured over 1 to 24 hrs by qRT-PCR analysis relative to control; format: cell-based; settings: HCT-116
[20] = target: T1, Nuclear factor erythroid 2-related factor 2 (Homo sapiens); experiment: Activation of Nrf2 in human HCT116 cells measured at 4 hrs by qRT-PCR analysis; format: cell-based; settings: HCT-116
[21] = target: T1, Nuclear factor erythroid 2-related factor 2 (Homo sapiens); experiment: Activation of Nrf2 in human HCT116 cells assessed as upregulation of GCLM gene expression measured at 4 hrs by qRT-PCR analysis; format: cell-based; settings: HCT-116
[22] = target: T1, Nuclear factor erythroid 2-related factor 2 (Homo sapiens); experiment: Activation of Nrf2 in human HCT116 cells assessed as upregulation of HO-1 gene expression measured at 4 hrs by qRT-PCR analysis; format: cell-based; settings: HCT-116
[23] = target: T1, Nuclear factor erythroid 2-related factor 2 (Homo sapiens); experiment: Activation of Nrf2 in human HCT116 cells assessed as upregulation of GCLM gene expression at 40 uM measured at 4 hrs by qRT-PCR analysis relative to control; format: cell-based; settings: HCT-116
[24] = target: T1, Nuclear factor erythroid 2-related factor 2 (Homo sapiens); experiment: Activation of Nrf2 in human HCT116 cells assessed as upregulation of HO-1 gene expression at 40 uM measured at 4 hrs by qRT-PCR analysis relative to control; format: cell-based; settings: HCT-116
[25] = target: T1, Nuclear factor erythroid 2-related factor 2 (Homo sapiens); experiment: Activation of Nrf2 in human HCT116 cells at 40 uM measured at 4 hrs by qRT-PCR analysis relative to control; format: cell-based; settings: HCT-116
[26] = target: T1, Nuclear factor erythroid 2-related factor 2 (Homo sapiens); experiment: Activation of Nrf2 in human HCT116 cells assessed as upregulation of NQO1 gene expression at 40 uM measured at 4 hrs by qRT-PCR analysis relative to control; format: cell-based; settings: HCT-116
[27] = Dissociation constant, pKa of the compound by potentiometric titration method; format: physicochemical
[28] = Lipophilicity, log D of the compound at pH 7.4 by potentiometric titration method; format: physicochemical; settings: buffer
[29] = Intrinsic aqueous solubility of the compound by potentiometric titration method; format: physicochemical; settings: read-out: Intrinsic_solubility
[30] = Permeability of the compound at pH 7.4 by PAMPA; format: physicochemical; settings: read-out: permeability
[31] = target: T1, Nuclear factor erythroid 2-related factor 2 (Homo sapiens); experiment: Activation of Nrf2 in human HepG2-ARE-C8 cells assessed as upregulation of ARE level at 50 uM after 12 hrs by luciferase reporter gene assay relative to control; format: cell-based

| SMILES | fold change (FC) [1] | fold change (FC) [2] | fold change (FC) [3] | Activity (HCT-116 [4]) | fold change (FC) [6] | fold change (FC) [7] | fold change (FC) [8] | fold change (FC) [9] | Papp [30] [×10⁻⁶ cm/s] | other results |
| --- | --- | --- | --- | --- | --- | --- | --- | --- | --- | --- |
| O=[N+]([O-])c1ccc(-c2nc(-c3ccc4nc[nH]c4c3)no2)cc1 | 36.7 | 30.6 | 38.3 | Non-toxic | 15.6 | 2.02 | 1.64 | 6.59 | – | Stability [5]: Unstable |
| Cn1cnc2ccc(-c3noc(-c4ccc5cc[nH]c5c4)n3)cc21 | 12.4 | 12.1 | 8.73 | – | 7.61 | 1.5 | 1.09 | 3.35 | – | Activity (HCT-116 [10]): Non-toxic; Activity [11]: Active; Activity [12]: Dose-dependent effect; Activity [13]: Dose-dependent effect; Activity [14]: Active; Activity [15]: tde; fold change (FC) [16]: 5; fold change (FC) [17]: 2.5; fold change (FC) [18]: 2.4; fold change (FC) [19]: 1.5; Activity [20]: Dose-dependent effect; Activity [21]: Dose-dependent effect; Activity [22]: Dose-dependent effect; fold change (FC) [23]: 3.8; fold change (FC) [24]: 7; fold change (FC) [25]: 3.4; fold change (FC) [26]: 2 |
| FC(F)(F)c1ccccc1-c1nc(-c2ccc3nc[nH]c3c2)no1 | 24.2 | 17.9 | 3.73 | Non-toxic | 19.1 | 2.28 | 1.23 | 9.01 | 4.78 | pKa [27]: 4; logD [28]: 4.01; solubility [29]: 14 µM (≈ 4.62 µg/mL) |
| Brc1ccc(-c2nc(-c3ccc4nc[nH]c4c3)no2)cc1 | 3.44 | 2.75 | 2.49 | Non-toxic | 13.4 | 2.36 | 1.31 | 12.7 | 11.2 | pKa [27]: 3.25; logD [28]: 3.54; solubility [29]: 35.4 µM (≈ 12.1 µg/mL) |
| CC(C(=O)O)c1cccc(C(=O)c2ccccc2)c1 (stereo unspecified) [KETOPROFEN] | – | – | – | – | – | – | – | – | 1.93 | – |
| Cc1nc2cc(-c3noc(-c4ccccc4Br)n3)ccc2o1 | 4.05 | 5.88 | 6 | – | 3.31 | 1.22 | 1.18 | 1.47 | – | fold change (FC) [31]: 5.47 |
| O=[N+]([O-])c1cccc(-c2nc(-c3ccc4nc[nH]c4c3)no2)c1 | 21.8 | 16.5 | 11.5 | Non-toxic | 11.6 | 1.56 | 1.43 | 4.74 | – | – |
| O=[N+]([O-])c1ccccc1-c1nc(-c2ccc3nc[nH]c3c2)no1 | 53.6 | 42.6 | 38.4 | Non-toxic | 36.6 | 3.76 | 1.73 | 12.1 | – | Stability [5]: Unstable |
| COc1ccc(-c2nc(-c3ccc4nc[nH]c4c3)no2)cc1 | 13 | 4.92 | 5.52 | Non-toxic | 9.84 | 2.72 | 1.43 | 3.27 | – | – |

From ChEMBL document CHEMBL3585308, “Discovery and Modification of in Vivo Active Nrf2 Activators with 1,2,4-Oxadiazole Core: Hits Identification and Structure-Activity Relationship Study” (J Med Chem, 2015)
